Data from PMC6382696, “Drug Repurposing: The Anthelmintics Niclosamide and Nitazoxanide Are Potent TMEM16A Antagonists That Fully Bronchodilate Airways” (Frontiers in Pharmacology, 2019).
Like-named read-outs stand apart in the source and are kept apart here.

Molecular target: T1, hTMEM16A (abc) (Homo sapiens, UniProt Q5XXA6, DEL476-501)
T1 sequence (Q5XXA6 with tags, fused parts or gaps isoform Q5XXA6-5 DEL539-564): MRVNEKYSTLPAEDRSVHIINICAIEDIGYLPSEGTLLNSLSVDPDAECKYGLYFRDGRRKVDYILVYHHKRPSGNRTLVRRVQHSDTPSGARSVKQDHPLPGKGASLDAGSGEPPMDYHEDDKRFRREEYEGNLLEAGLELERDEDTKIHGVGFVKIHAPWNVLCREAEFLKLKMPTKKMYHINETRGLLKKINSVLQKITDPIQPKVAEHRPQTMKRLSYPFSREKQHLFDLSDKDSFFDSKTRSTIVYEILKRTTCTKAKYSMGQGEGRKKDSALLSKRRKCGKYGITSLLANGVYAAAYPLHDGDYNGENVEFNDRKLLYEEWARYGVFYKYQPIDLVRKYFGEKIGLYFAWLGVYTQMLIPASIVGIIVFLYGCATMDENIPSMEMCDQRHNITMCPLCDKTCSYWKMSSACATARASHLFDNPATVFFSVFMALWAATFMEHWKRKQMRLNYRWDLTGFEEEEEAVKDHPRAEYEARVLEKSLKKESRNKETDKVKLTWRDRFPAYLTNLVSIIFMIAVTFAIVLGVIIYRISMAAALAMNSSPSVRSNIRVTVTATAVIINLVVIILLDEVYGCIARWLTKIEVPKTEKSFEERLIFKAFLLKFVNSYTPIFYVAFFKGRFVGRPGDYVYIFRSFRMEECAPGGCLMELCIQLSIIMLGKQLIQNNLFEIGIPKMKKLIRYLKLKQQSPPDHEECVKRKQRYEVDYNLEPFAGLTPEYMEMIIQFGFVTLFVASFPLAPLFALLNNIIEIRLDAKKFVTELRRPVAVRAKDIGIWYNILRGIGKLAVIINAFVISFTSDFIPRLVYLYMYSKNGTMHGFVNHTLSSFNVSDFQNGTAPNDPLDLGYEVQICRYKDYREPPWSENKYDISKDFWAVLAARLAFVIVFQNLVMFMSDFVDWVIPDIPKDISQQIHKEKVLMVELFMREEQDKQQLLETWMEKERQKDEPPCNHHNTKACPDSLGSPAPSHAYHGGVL
Test: TMEM16A halide-sensitive YFP (eYFP) high-throughput screening assay
Type: cell-based
Design: expressed in transfected cells
Settings: for remaining activity at 5 µM / inhibition at 5 µM: 5 μM compound; for remaining activity at 5 µM: POC 0 = full block by benzbromarone, read-out: POC (percent of control) halide-sensitive YFP response in HTS; for inhibition at 5 µM: read-out: % inhibition of halide-sensitive YFP response during HTS
Procedure: The High-Throughput-Screening clone HEK293T:eYFP: TMEM16A(abc) stably expressing eYFP (H149Q,I153L) and human TMEM16A(abc) was generated by stable transfection followed by functional clone selection. HEK293T:eYFP (H149Q,I153L) was cultivated in propagation medium DMEM (PAN #P04-03550) containing 10% FBS (PAN #3302-P281402), 1x Pen/Strep (PAN #P06-07100), 1x L-glutamine (PAN #P04-80100), 10 mM HEPES (PAN #P05-01100) and 0.5 μg/ml puromycin (Sigma #P7255) and transfected with pIREShyg3:huTMEM16A(abc). Stable cell pool was generated by cultivation in propagation medium containing 0.5 μg/ml puromycin and 200 μg/ml hygromycin B for 20 days. Cell pool was then diluted in the same medium and seeded in 384-well microtiter plates. Grown clones were replicated into daughter plates using a CyBio Felix pipetting platform (Analytik Jena AG). Daughter plates were analyzed using the eYFP assay essentially as described in the HTS protocol below using a FLIPR-Tetra. Clones showing maximal quenching of eYFP fluorescence intensity after addition of trigger solution (assay buffer containing NaI and ionomycin) were selected for propagation from the mother plate and further characterized with regard to HTS assay development performance parameters including inhibition by the benchmark compound benzbromarone, S/B and relevant HTS quality control statistics (Z-factor, Z′-factor, RZ-factor, RZ′-factor). One clone was finally selected as HTS clone and used throughout the entire HTS campaign to identify TMEM16A antagonists.
For the HTS screen, the screening cell line HEK293T:eYFP(H149Q,I153L):TMEM16A(abc) stably expressing halide sensitive YFP (eYFP (H149Q,I153L)) and human TMEM16A(abc) were propagated in DMEM (PAN #P04-03550) containing 10% FBS (PAN #3302-P281402), 1x Pen/Strep (PAN #P06-07100), 1x L-glutamine (PAN #P04-80100), 10 mM HEPES (PAN #P05-01100), 0.5 μg/ml puromycin (Sigma #P7255), and 150 μg/ml hygromycin B (Life Technologies #10687-010) in Corning TC-treated flasks. Twenty four hours prior to the assay 11,000 cells were seeded per well in 30 μl assay plating medium [propagation medium containing 0.01% Pluronic F-68 (PAN #P08-2100)] in Corning CellBIND 384-Well Flat Clear Bottom Black Polystyrene Microplates (Corning #3683) and cultivated for 24 h at 37°C. Before initiating the fully automated and scheduled HTS sequence, cell plates were transferred to an incubator and stored at RT and 0% CO2. Library compounds were delivered in Greiner 384 PP plates (Greiner #784201) containing 1mM compound dissolved in DMSO in columns 1–22 and DMSO in columns 23 and 24 and were stored in a stacker at RT. Further dilutions of compounds were generated by fully automated liquid handling using a CyBio 384-well/25 μl pipetting head (Analytik Jena AG) by diluting 0.5 μl compound (1 mM in DMSO) in 20 μl assay buffer [1xHBSS (Life Technologies #14025050) containing 10 mM HEPES (PAN #P05-01100) and 0.01% Pluronic F-68 (PAN #P08-2100), adjusted to pH 7.4] in Greiner 384 PP plates (Greiner #784201). Intermediate compound plates contained 25 μM library compounds in assay buffer containing 2.5% DMSO in columns 1–22, assay buffer containing 2.5% DMSO as neutral control in column 23 and 100 μM Benzbromarone (Sigma #B5774) in assay buffer containing 2.5% DMSO in column 24 as ligand control (benchmark antagonist) and were stored in a stacker at RT. Simultaneous to compound dilution medium was aspirated from cell plates using a Biotek 405 microplate washer followed by washing the cells twice with 65 μl/well assay buffer. With the final aspiration of assay buffer, the residual volume was adjusted to 15 μl. […] Cell plates were incubated for 30 min at RT and 0% CO2. After incubation cell plates were transferred to a FLIPR-Tetra and 25 μl trigger solution [assay buffer containing 20 mM sodium iodide (Sigma #383112) and 4 μM ionomycin (Sigma #I0634; stock solution 10 mM in DMSO)] was added before reading iodide-quenching of eYFP fluorescence intensity. […]

[1] = HEK293T:eYFP:TMEM16A(abc), 30 min preincubation, 10 mM iodide, 2 μM ionomycin, read-out: IC50 in the eYFP HTS assay

| Compound | IC50 (supplement, read-out: IC50, TMEM16A (abc) eYFP HTS assay) | remaining activity at 5 µM | inhibition at 5 µM | IC50 (22-point dose-response, read-out: IC50, TMEM16A eYFP assay dose response of the HTS campaign) | IC50 [1] |
| --- | --- | --- | --- | --- | --- |
| O=C(Nc1ncc([N+](=O)[O-])s1)c1cccs1 [NTTP] | 2.84 µM | – | – | – | – |
| N#Cc1c(C(F)(F)F)cc(O)n2c1nc1ccccc12 [1PBC] | – | 74.8% | 25.2% | 1.05 µM | – |
| O=C(Nc1ccc([N+](=O)[O-])cc1Cl)c1cc(Cl)ccc1O [Niclosamide] | – | 69 ± 3.3% | 31% | – | 0.14 µM |
| COc1cc([N+](=O)[O-])ccc1NC(=O)c1cc(Cl)c2ccccc2c1O [Cpd 4] | – | 61.1 ± 7.8% | 38.9% | – | 0.97 µM |
